pIC50: −log10 of the molar value.
Columns and labels:
Format in all cases: cell-based
Ba/F3 BCR-ABL1 I502L = target: T1, Ba/F3 BCR-ABL1 I502L (Homo sapiens, UniProt P00519+P11274, I502L); assay: Cell growth inhibitory activity assay (CellTiter-Glo), Ba/F3 BCR-ABL1 I502L cells; settings: 72 h, CTG cell viability
T1 construct: BCR (N-terminal fusion partner of the oncoprotein); expressed in transfected cells; host or cells: Ba/F3 (lentiviral transduction, monoclonal line)
Experimental: (§1) In this assay, the Celltiter-Glo (CTG) kit provided by Promega was used, and it is a homogeneous cell viability assay method. The cell viability of cultured cells was measured by quantifying ATP. K562 cells were purchased from Nanjing Kebai, product number CBP60529; Ba/F3 parental cells were purchased from RIKEN BRC, product number RCB0805; other cells containing BCR-ABL1 WT, BCR-ABL1 T315I, BCR-ABL1 T315M, BCR-ABL1 Y253H/E255K, BCR-ABL1 E255V/T3151, BCR-ABL1 A424T, BCR-ABL1 A337V, BCR-ABL1 P465S, BCR-ABL1 V468F, and BCR-ABL1 I502L were all monoclonal engineered cell lines obtained by transducting Ba/F3 parental cells with the lentivirus plasmids containing WT or corresponding mutated BCR-ABL1.
(§2) The steps of cell viability assay are as follows: • a) Cells in logarithmic growth phase were collected. Cell suspension was prepared and the cells were counted. Concentration of the cells was calculated. • b) The cell suspension was diluted to the required concentration and then added to the middle wells of a 96-well plate, and PBS was added to the edge wells. The wells with no cells and only culture medium were used as blank controls. • c) In addition to the cell plate used for compound analysis, another 96-well plate was prepared as a T0 plate, and 3-6 blank wells and 3-6 cell wells were added. The next day, CTG was used to test the cell viability as the T0 viability value of the cells. • d) The cell plate was incubated at 37 °C in a 5% CO2 incubator overnight. • e) The next day, each concentration of a compound subjected to a gradient dilution was added, and the cell plate was incubated at 37 °C in a 5% CO2 incubator for 72 h. The wells with no compound and only 0.5% DMSO were used as positive controls for cell growth. • f) CTG reagent (CellTiter-Glo kit) was added according to the manufacturer's instructions to test the cell viability value. • g) The plate was read using Biotek cytation3.0 microplate reader and the data were exported. • h) IC50 was calculated using GraphPad Prism 7.0 software.
(§3) The IC50 (half-maximal inhibitory concentration) of the compound was obtained using the following nonlinear fitting formula: Y = Bottom + (Top−Bottom)/(1+10^(∧)((LogIC50−X)*HillSlope)) [formula] • X: Log value of the compound concentration • Y: Inhibition rate (% inhibition) • Top: Maximum response • Bottom: Baseline response • HillSlope: Slope of the curve
(§4) The formula for calculating cell inhibition rate (inhibition rate %) was: [formula]

Ba/F3 BCR-ABL1 A424T = target: T2, Ba/F3 BCR-ABL1 A424T (Homo sapiens, UniProt P00519+P11274, A424T); assay: Cell growth inhibitory activity assay (CellTiter-Glo), Ba/F3 BCR-ABL1 A424T cells; settings: 72 h, CTG cell viability
T2 construct: BCR (N-terminal fusion partner of the oncoprotein); expressed in transfected cells; host or cells: Ba/F3 (lentiviral transduction, monoclonal line)
Experimental: as §1, §2, §3, §4

Ba/F3 BCR-ABL1 A337V = target: T3, Ba/F3 BCR-ABL1 A337V (Homo sapiens, UniProt P00519+P11274, A337V); assay: Cell growth inhibitory activity assay (CellTiter-Glo), Ba/F3 BCR-ABL1 A337V cells; settings: 72 h, CTG cell viability
T3 construct: BCR (N-terminal fusion partner of the oncoprotein); expressed in transfected cells; host or cells: Ba/F3 (lentiviral transduction, monoclonal line)
Experimental: as §1, §2, §3, §4

[1] = target: T4, Ba/F3 BCR-ABL1 E255V/T315I (Homo sapiens, UniProt P00519+P11274, E255V/T315I); assay: Cell growth inhibitory activity assay (CellTiter-Glo), Ba/F3 BCR-ABL1 E255V/T315I cells; settings: 72 h, CTG cell viability
T4 construct: BCR (N-terminal fusion partner of the oncoprotein); expressed in transfected cells; host or cells: Ba/F3 (lentiviral transduction, monoclonal line)
Experimental: as §1, §2, §3, §4

Ba/F3 BCR-ABL1 P465S = target: T5, Ba/F3 BCR-ABL1 P465S (Homo sapiens, UniProt P00519+P11274, P465S); assay: Cell growth inhibitory activity assay (CellTiter-Glo), Ba/F3 BCR-ABL1 P465S cells; settings: 72 h, CTG cell viability
T5 construct: BCR (N-terminal fusion partner of the oncoprotein); expressed in transfected cells; host or cells: Ba/F3 (lentiviral transduction, monoclonal line)
Experimental: as §1, §2, §3, §4

K562 cells = assay: Cell growth inhibitory activity assay (CellTiter-Glo), K562 cells; settings: Homo sapiens, 72 h, CTG cell viability
Method in brief: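 K562 cells in logarithmic growth were counted, diluted and plated in 96-well plates, with medium-only blanks and a separate T0 plate read by CTG the following day. After overnight incubation, graded compound concentrations were added for 72 h, with 0.5% DMSO wells as growth controls. Luminescence was read on a Biotek cytation3.0, and IC50 came from nonlinear fitting in GraphPad Prism 7.0.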

Ba/F3 BCR-ABL1 WT = target: T6, Ba/F3 BCR-ABL1 WT (Homo sapiens, UniProt P00519+P11274); assay: Cell growth inhibitory activity assay (CellTiter-Glo), Ba/F3 BCR-ABL1 WT cells; settings: 72 h, CTG cell viability
T6 construct: BCR (N-terminal fusion partner of the oncoprotein); expressed in transfected cells; host or cells: Ba/F3 (lentiviral transduction, monoclonal line)
Method in brief: (§5)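 Compound dilutions applied for 72 h (37 °C, 5% CO2) to overnight-plated Ba/F3 cells, parental or engineered to express WT/mutant BCR-ABL1. ATP-based CellTiter-Glo luminescence read, referenced to day-0 viability and 0.5% DMSO wells; IC50 fitted by four-parameter logistic curve.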

Ba/F3 parental cells = assay: Cell growth inhibitory activity assay (CellTiter-Glo), Ba/F3 parental cells; settings: Mus musculus, BaF3, 72 h, CTG cell viability, read-out: IC50 Ba/F3 BCR-ABL1 Parental
Method in brief: as §5

Ba/F3 BCR-ABL1 T315M = target: T7, Ba/F3 BCR-ABL1 T315M (Homo sapiens, UniProt P00519+P11274, T315M); assay: Cell growth inhibitory activity assay (CellTiter-Glo), Ba/F3 BCR-ABL1 T315M cells; settings: 72 h, CTG cell viability
T7 construct: BCR (N-terminal fusion partner of the oncoprotein); expressed in transfected cells; host or cells: Ba/F3 (lentiviral transduction, monoclonal line)
Method in brief: as §5

[2] = target: T8, Ba/F3 BCR-ABL1 Y253H/E255K (Homo sapiens, UniProt P00519+P11274, E255K/Y253H); assay: Cell growth inhibitory activity assay (CellTiter-Glo), Ba/F3 BCR-ABL1 Y253H/E255K cells; settings: 72 h, CTG cell viability
T8 construct: BCR (N-terminal fusion partner of the oncoprotein); expressed in transfected cells; host or cells: Ba/F3 (lentiviral transduction, monoclonal line)
Experimental: as §1, §2, §3, §4

Ba/F3 BCR-ABL1 T315I = target: T9, Ba/F3 BCR-ABL1 T315I (Homo sapiens, UniProt P00519+P11274, T315I); assay: Cell growth inhibitory activity assay (CellTiter-Glo), Ba/F3 BCR-ABL1 T315I cells; settings: 72 h, CTG cell viability
T9 construct: BCR (N-terminal fusion partner of the oncoprotein); expressed in transfected cells; host or cells: Ba/F3 (lentiviral transduction, monoclonal line)
Method in brief: as §5

Ba/F3 BCR-ABL1 V468F = target: T10, Ba/F3 BCR-ABL1 V468F (Homo sapiens, UniProt P00519+P11274, V468F); assay: Cell growth inhibitory activity assay (CellTiter-Glo), Ba/F3 BCR-ABL1 V468F cells; settings: 72 h, CTG cell viability
T10 construct: BCR (N-terminal fusion partner of the oncoprotein); expressed in transfected cells; host or cells: Ba/F3 (lentiviral transduction, monoclonal line)
Experimental: as §1, §2, §3, §4

Row | SMILES | pIC50 (Ba/F3 BCR-ABL1 I502L) | pIC50 (Ba/F3 BCR-ABL1 A424T) | pIC50 (Ba/F3 BCR-ABL1 A337V) | pIC50 [1] | pIC50 (Ba/F3 BCR-ABL1 P465S) | pIC50 (K562 cells) | pIC50 (Ba/F3 BCR-ABL1 WT) | pIC50 (Ba/F3 parental cells) | pIC50 (Ba/F3 BCR-ABL1 T315M) | pIC50 [2] | pIC50 (Ba/F3 BCR-ABL1 T315I) | pIC50 (Ba/F3 BCR-ABL1 V468F)
1 | C[C@@H]1COCc2nc3cc(C(=O)Nc4ccc(OC(F)(F)Cl)cc4)cc(-c4cnc5c(c4)-c4nn(C6COC6)cc4C5)c3n21 [T-52, (R)-N-(4-(chlorodifluoromethoxy)phenyl)-4-methyl-6-(2-(oxetan-3-yl)-2,4-dihydropyrazolo[3',4':3,4]cyclopenta[1,2-b]pyridin-7-yl)-3,4-dihydro-1H-benzo[4,5]imidazo[2,1-c] [1,4]oxazine-8-carboxamide] | 7.30 to 8.30 | 7.30 to 8.30 | 6.00 to 7.30 | ≥ 8.30 | 6.00 to 7.30 | ≥ 8.30 | ≥ 8.30 | < 6.00 | < 6.00 | 7.30 to 8.30 | ≥ 8.30 | 7.30 to 8.30
2 | Cc1cc(C)nc(-n2cc3c(n2)-c2cc(-c4cc(C(=O)Nc5ccc(OC(F)(F)Cl)cc5)cc5nc6n(c45)[C@H](C)COC6)cnc2C3)n1 [T-76, (R)-N-(4-(chlorodifluoromethoxy)phenyl)-6-(2-(4,6-dimethylpyrimidin-2-yl)-2,4-dihydropyrazolo[3',4':3,4]cyclopenta[1,2-b]pyridin-7-yl)-4-methyl-3,4-dihydro-1H-benzo[4,5]imidazo[2,1-c][1,4]oxazine-8-carboxamide] | 7.30 to 8.30 | ≥ 8.30 | 6.00 to 7.30 | ≥ 8.30 | 6.00 to 7.30 | ≥ 8.30 | ≥ 8.30 | < 6.00 | ≥ 8.30 | ≥ 8.30 | ≥ 8.30 | 6.00 to 7.30
3 | C[C@@H]1COCc2nc3cc(C(=O)Nc4ccc(OC(F)(F)Cl)cc4)cc(-c4cnc5c(c4)-c4nn(-c6ccccn6)cc4C5)c3n21 [T-4] | 7.30 to 8.30 | 7.30 to 8.30 | 6.00 to 7.30 | 7.30 to 8.30 | 6.00 to 7.30 | ≥ 8.30 | ≥ 8.30 | < 6.00 | < 6.00 | ≥ 8.30 | ≥ 8.30 | 6.00 to 7.30
4 | C[C@@H]1COCc2nc3cc(C(=O)Nc4ccc(OC(F)(F)Cl)cc4)cc(-c4cnccn4)c3n21 [T-115, (R)-N-(4-(chlorodifluoromethoxy)phenyl)-4-methyl-6-(pyrazin-2-yl)-3,4-dihydro-1H-benzo[4,5]imidazo[2,1-c][1,4]oxazine-8-carboxamide] | 6.00 to 7.30 | 6.00 to 7.30 | 6.00 to 7.30 | 7.30 to 8.30 | 6.00 to 7.30 | ≥ 8.30 | ≥ 8.30 | < 6.00 | < 6.00 | 7.30 to 8.30 | 7.30 to 8.30 | 6.00 to 7.30
5 | C[C@@H]1COCc2nc3cc(C(=O)Nc4ccc(OC(F)(F)Cl)cc4)cc(-c4cnc5c(c4)-c4nn(C6CC6)cc4C5)c3n21 [T-57, (R)-N-(4-(chlorodifluoromethoxy)phenyl)-6-(2-cyclopropyl-2,4-dihydropyrazolo[3',4':3,4]cyclopenta[1,2-b]pyridin-7-yl)-4-methyl-3,4-dihydro-1H-benzo[4,5]imidazo[2,1-c][1,4]oxazine-8-carboxamide] | 7.30 to 8.30 | 7.30 to 8.30 | 7.30 to 8.30 | ≥ 8.30 | 6.00 to 7.30 | ≥ 8.30 | ≥ 8.30 | < 6.00 | < 6.00 | 7.30 to 8.30 | ≥ 8.30 | 7.30 to 8.30
6 | C[C@@H]1CCSc2nc3cc(C(=O)Nc4ccc(OC(F)(F)Cl)cc4)cc(-c4cnc5c(c4)C(=O)N(C)C5)c3n21 [T-20, (R)-N-(4-(chlorodifluoromethoxy)phenyl)-4-methyl-6-(6-methyl-5-oxo-6,7-dihydro-5H-pyrrolo[3,4-b]pyridin-3-yl)-3,4-dihydro-2H-benzo[4,5]imidazo[2,1-b][1,3]thiazine-8-carboxamide] | 7.30 to 8.30 | 6.00 to 7.30 | 6.00 to 7.30 | 7.30 to 8.30 | 6.00 to 7.30 | ≥ 8.30 | ≥ 8.30 | < 6.00 | < 6.00 | 6.00 to 7.30 | 7.30 to 8.30 | 6.00 to 7.30
7 | C[C@@H]1COCc2nc3cc(C(=O)Nc4ccc(OC(F)(F)Cl)cc4)cc(-c4cnc5c(c4)-c4nn(-c6nccc(C#N)n6)cc4C5)c3n21 [T-69-B, (R)-N-(4-(chlorodifluoromethoxy)phenyl)-6-(2-(4-cyanopyrimidin-2-yl)-2,4-dihydropyrazolo[3',4':3,4]cyclopenta[1,2-b]pyridin-7-yl)-4-methyl-3,4-dihydro-1H-benzo[4,5]imidazo[2,1-c][1,4]oxazine-8-carboxamide] | ≥ 8.30 | 7.30 to 8.30 | 6.00 to 7.30 | ≥ 8.30 | 6.00 to 7.30 | ≥ 8.30 | ≥ 8.30 | < 6.00 | ≥ 8.30 | 7.30 to 8.30 | ≥ 8.30 | 6.00 to 7.30
8 | C[C@@H]1COCc2nc3cc(C(=O)Nc4ccc(OC(F)(F)Cl)cc4)cc(-c4cnc5c(c4)C(=O)N(C)C5)c3n21 [T-21, (R)-N-(4-(chlorodifluoromethoxy)phenyl)-4-methyl-6-(6-methyl-5-oxo-6,7-dihydro-5H-pyrrolo[3,4-b]pyridin-3-yl)-3,4-dihydro-1H-benzo[4,5]imidazo[2,1-c][1,4]oxazine-8-carboxamide] | 7.30 to 8.30 | 6.00 to 7.30 | 6.00 to 7.30 | 7.30 to 8.30 | 6.00 to 7.30 | ≥ 8.30 | ≥ 8.30 | < 6.00 | < 6.00 | 7.30 to 8.30 | 7.30 to 8.30 | 6.00 to 7.30
